Results on 16 compounds are retold here after patent publication US6057311A, “Benzodiazonine derivatives binding to cholecystokinin or gastrin receptors” (James Black Foundation Limited, priority 1996, dated 2000).

The target in one assay is T1, CCKB receptor (Mus musculus, UniProt P56481).
T1 construct: The cortex was dissected, weighed and homogenised in 40 ml ice-cold buffer; tissue Charles River (animals); host or cells: cerebral cortex of male CD1 mice, membranes
T1 sequence (P56481 1-453): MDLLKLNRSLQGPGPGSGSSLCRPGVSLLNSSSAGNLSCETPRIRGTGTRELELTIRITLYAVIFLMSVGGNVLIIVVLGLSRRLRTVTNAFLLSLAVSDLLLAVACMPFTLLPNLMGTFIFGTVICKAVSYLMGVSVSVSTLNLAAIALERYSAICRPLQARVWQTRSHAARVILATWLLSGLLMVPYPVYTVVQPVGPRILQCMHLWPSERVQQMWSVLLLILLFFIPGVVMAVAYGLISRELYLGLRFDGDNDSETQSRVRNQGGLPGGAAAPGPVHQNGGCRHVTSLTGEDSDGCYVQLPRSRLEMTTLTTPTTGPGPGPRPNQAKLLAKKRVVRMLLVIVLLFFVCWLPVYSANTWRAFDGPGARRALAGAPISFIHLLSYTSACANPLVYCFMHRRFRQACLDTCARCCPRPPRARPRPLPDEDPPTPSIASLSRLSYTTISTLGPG
The experiment in a line: radioligand binding assay at the CCKB receptor in mouse cortical membranes ([125I]-CCK8S). The settings on record: [125I]-CCK8S 200 pM, 150 min at 21±3° C., pH 7.2. As to the method:
The compounds of the examples were tested for binding at the CCKB receptor in mouse cortical membranes by means of a radioligand binding assay. The procedure was as follows:
The whole brains from male mice (CD1 22-25 g; Charles River) were removed and placed in ice-cold buffer (pH7.2@21±3° C.) of the following composition (mM); 10 HEPES, 130 NaCl, 4.7 KCl, 5 MgCl2, 1 EDTA and containing 0.25 g.1^-1 bacitracin. The cortex was dissected, weighed and homogenised in 40 ml ice-cold buffer using a Teflon-in-glass homogeniser. The homogenate was centrifuged at 39,800 g for 20 min at 4° C., the supernatant discarded and the pellet resuspended by homogenisation in fresh buffer. The homogenate was recentrifuged (39,800 g; 20 min @4° C.) and the final pellet was resuspended in HEPES buffer to give a tissue concentration of 2 mg.ml^-1 (original wet weight).
The membranes (400 μl) were incubated for 150 min at 21±3° C. in a final volume of 0.5 ml with HEPES buffer containing [^125 I]-CCK8S (0.05 ml; 200 pM NEN 2200 Ci.mmol^-1) and competing compound. Total and non-specific binding of [^125 I]-CCK8S were defined using 0.05 ml of buffer and 0.05 ml of […] L-365,260, respectively. The assay was terminated by rapid filtration through pre-soaked Whatman GF/B filters using a Brandell Cell harvester. The filters were washed (3×3 ml) with ice-cold 50 mM Tris-HCl (pH7.4@4° C.) and bound radioactivity determined by counting (1 min.) in a gamma-counter.
Consider `COc1ccc(CN2C(=O)[C@@H](CC34CC5CC(CC(C5)C3)C4)N(C(C)=O)[C@H](C(=O)NCC(=O)O)CC(=O)c3ccccc32)cc1` [Example 75, (3R,5S)-4-acetyl-3-(1-adamantyl)methyl-1-(4-methoxybenzyl)-5-carboxymethylaminocarbonyl-2,7-dioxo-2,3,4,5,6,7-hexahydro-1H-1,4-benzodiazonine], for which the “pKi (Mouse cortex)” value was 5.9.
For the compound `CC1CCN(C(=O)Nc2cccc(C(=O)O)c2)CC(=O)N(Cc2ccccc2)c2ccccc21` (stereo not shown) [Example 48, 1-benzyl-7-methyl-4-(3-carboxyphenyl)carbamyl-2-oxo-2,3,4,5,6,7-hexahydro-1H-1,4-benzodiazonine], the “pKi (Mouse cortex)” value was 4.8.
Still for that read-out and setting: under “(+/-)-trans-4-acetyl-3-(1-adamantyl)methyl-1-benzyl-5-carboxymethylaminocarbonyl-2,7-dioxo-9-methyl-2,3,4,5,6,7-hexahydro-1H-1,4-benzodiazonine [Example 70]” stands 6.9.
Take `CC(=O)N1[C@H](CC23CC4CC(CC(C4)C2)C3)C(=O)N(Cc2ccccc2F)c2ccccc2C(=O)C[C@H]1C(=O)NCc1nn[nH]n1` [Example 68, (3R,5S)-4-acetyl-3-(1-adamantyl)methyl-1-(2-fluorobenzyl)-5-(5-tetrazolo)methylaminocarbonyl-2,7-dioxo-2,3,4,5,6,7-hexahydro-1H-1,4-benzodiazonine]: the “pKi (Mouse cortex)” value came out at 6.8.

Still in this assay, the particulars now being: [125I]-CCK8S 200 pM, 150 min at 21±3° C., pH 7.2, read-out: pKi (Mouse cortex) (converted).
Consider `CC(=O)N1[C@H](CC23CC4CC(CC(C4)C2)C3)C(=O)N(Cc2ccccc2C)c2ccccc2C(=O)C[C@H]1C(=O)NCC(=O)O` [Example 74, (3R,5S)-4-acetyl-3-(1-adamantyl)methyl-1-(2-methylbenzyl)-5-carboxymethylaminocarbonyl-2,7-dioxo-2,3,4,5,6,7-hexahydro-1H-1,4-benzodiazonine], for which the Ki is 158 nM.
On to `CC(=O)N1[C@H](CC23CC4CC(CC(C4)C2)C3)C(=O)N(Cc2ccc(C)cc2)c2ccccc2C(=O)C[C@H]1C(=O)NCC(=O)O` [Example 72, (3R,5S)-4-acetyl-3-(1-adamantyl)methyl-1-(4-methylbenzyl)-5-carboxymethylaminocarbonyl-2,7-dioxo-2,3,4,5,6,7-hexahydro-1H-1,4-benzodiazonine], for which the Ki is 631 nM.
Consider `Cc1cccc(NC(=O)N2CCCc3ccccc3N(Cc3ccccc3)C(=O)C2)c1` [Example 54, 1-benzyl-4-(3-methylphenyl)carbamyl-2-oxo-2,3,4,5,6,7-hexahydro-1H-1,4-benzodiazonine], for which the Ki is 3980 nM.
Turning to `CC(=O)N1[C@H](CC23CC4CC(CC(C4)C2)C3)C(=O)N(Cc2ccccc2)c2ccccc2C(=O)C[C@H]1C(=O)NCc1nn[nH]n1` [Example 67, (3R,5S)-4-acetyl-3-(1-adamantyl)methyl-1-benzyl-5-tetrazolomethylaminocarbonyl-2,7-dioxo-2,3,4,5,6,7-hexahydro-1H-1,4-benzodiazonine], the Ki is 158 nM.
As for `COc1ccc2c(c1)C(=O)C[C@@H](C(=O)NCC(=O)O)N(C(C)=O)[C@H](CC13CC4CC(CC(C4)C1)C3)C(=O)N2Cc1ccccc1` (relative stereo) [Example 69, (+/-)-trans-4-acetyl-3-(1-adamantyl)methyl-1-benzyl-5-carboxymethylaminocarbonyl-2,7-dioxo-9-methoxy-2,3,4,5,6,7-hexahydro-1H-1,4-benzodiazonine], the Ki was 126 nM.
For the compound `CC(=O)N1[C@@H](C(=O)NCC(=O)O)CC(=O)c2ccccc2N(Cc2ccccc2F)C(=O)[C@@H]1CC12CC3CC(CC(C3)C1)C2` [Example 73, (3S ,5R)-4-acetyl-3-(1-adamantyl)methyl-1-(2-fluorobenzyl)-5-carboxymethylaminocarbonyl-2,7-dioxo-2,3,4,5,6,7-hexahydro-1H-1,4-benzodiazonine], the Ki was 2510 nM.
On the same count and under the same terms, under `CC(=O)N1[C@H](CC23CC4CC(CC(C4)C2)C3)C(=O)N(Cc2ccccc2F)c2ccccc2C(=O)C[C@H]1C(=O)NCC(=O)NS(C)(=O)=O` [Example 65, (3R,5S)-4-acetyl-3-(1-adamantyl)methyl-1-(2-fluorobenzyl)-5-methanesulphonamidocarboxymethylaminocarbonyl-2,7-dioxo-2,3,4,5,6,7-hexahydro-1H-1,4-benzodiazonine] stands 398 nM.
On the same count and under the same terms, with `CC1CCN(C(=O)Nc2cc(C(=O)O)cc(C(=O)O)c2)CC(=O)N(Cc2ccccc2)c2ccccc21` (stereo not shown) [Example 47, 1-benzyl-7-methyl-4-(3,5-dicarboxyphenyl)carbamyl-2-oxo-2,3,4,5,6,7-hexahydro-1H-1,4-benzodiazonine] the figure was 6310 nM.
The same measure, in the same setting: under `CC(=O)N1[C@H](CC23CC4CC(CC(C4)C2)C3)C(=O)N(Cc2cccc(Cl)c2)c2ccccc2C(=O)C[C@H]1C(=O)NCC(=O)O` [Example 62, (3R,5S)-4-acetyl-3-(1-adamantyl)methyl-1-(3-chlorobenzyl)-5-carboxymethylaminocarbonyl-2,7-dioxo-2,3,4,5,6,7-hexahydro-1H-1,4-benzodiazonine] stands 398 nM.
As to `CC(=O)N1[C@H](CC23CC4CC(CC(C4)C2)C3)C(=O)N(Cc2cccc(C)c2)c2ccccc2C(=O)C[C@H]1C(=O)NCC(=O)O` [Example 71, (3R,5S)-4-acetyl-3-(1-adamantyl)methyl-1-(3-methylbenzyl)-5-carboxymethylaninocarbonyl-2,7-dioxo-2,3,4,5,6,7-hexahydro-1H-1,4-benzodiazonine], the Ki was 1000 nM.
Take `CC(=O)N1[C@H](CC23CC4CC(CC(C4)C2)C3)C(=O)N(Cc2ccccc2F)c2ccccc2C(=O)C[C@H]1C(=O)N[C@@H](C)C(=O)NS(C)(=O)=O` [Example 66, (3R,5S)-4-acetyl-3-(1-adamantyl)methyl-1-(2-fluorobenzyl)-5-[(1S)-methanesulphonamidocarboxy]ethylaminocarbonyl-2,7-dioxo-2,3,4,5,6,7-hexahydro-1H-1,4-benzodiazonine]: the Ki was 501 nM.
On to `Cc1cccc(NC(=O)N2CCCc3ccccc3N(CC(=O)OC(C)(C)C)C(=O)C2)c1` [Example 49, 1-tert-butyloxycarbonylmethyl-4-(3-methylphenyl)carbamyl-2-oxo-2,3,4,5,6,7-hexahydro-1H-1,4-benzodiazonine], for which the Ki is 6310 nM.
